Values of other authors in US20260345597A1, “LONG-ACTING AND SUSTAINED-RELEASE PREPARATION COMPOSITION OF LUMATEPERONE AND PREPARATION METHOD THEREOF” (SICHUAN KELUN PHARMACEUTICAL RESEARCH INSTITUTE CO., LTD., priority 2023, published 2026).

Test system: patients with schizophrenia
Details: background

CN1CCN2c3c(cccc31)[C@@H]1CN(CCCC(=O)c3ccc(F)cc3)CC[C@@H]12 [lumateperone]
adverse reactions such as weight gain and abnormal lipid metabolism: less likely to cause adverse reactions such as weight gain and abnormal lipid metabolism | effect on symptoms of schizophrenia (patients with schizophrenia): alleviating positive symptoms while improving negative symptoms, depressive symptoms, and social functioning | safety and tolerability profile (patients with schizophrenia): superior safety and tolerability profiles
